Test results reported in US10221255B2, “Composition for the immediate stopping of a free-radical polymerization” (BASF SE, priority 2015, dated 2019).

Key:
[1] = Hansen solubility parameters and solubility distance Ra of solvents; format: physicochemical; design: key: solubility distance Ra in MPa^1/2; details: solubility distance calculated from formula 1
Text: The value will hereinafter also be referred to as solubility distance Ra. The definition and calculation of the solubility parameters in the three-dimensional Hansen solubility space are described in: C. M. Hansen: “The three dimensional solubility parameters” J. Paint Technol. […] In this Hansen space, δD denotes the LONDON dispersion forces, δP denotes the Debye interaction forces between permanent dipoles and also the Keesom interaction forces between induced and permanent dipoles and δH denotes the specific interaction forces (hydrogen bonds, acid/base, donor/acceptor, etc.). The unit of the parts of the parameters is in each case [MPa^1/2].
The Hansen solubility parameters for many solvents are tabulated in standard works such as Hansen Solubility Parameters: A User's Handbook, C. […] It is also possible to use known modeling software, for example HSPIP 3.1.14 (3rd Edition), developed and marketed by C. M. Hansen, in order to calculate the Hansen solubility parameters on the basis of the chemical structure of the solvent.

[2] = Hansen solubility parameter, room temperature, about 23° C., cited from earlier work; for δD: LONDON dispersion forces; for δP: dipole interaction forces; for δH: specific interaction forces (hydrogen bonds etc.)
[3] = relative static permittivity, liquid pure substance; cited from earlier work
[4] = Heating test in acrylic acid: inhibition period at 120° C. under air; details: PTZ 20 ppm in acrylic acid, average of three
Procedure: In this example, heating tests in acrylic acid (AA) were carried out. In this test, a sample of acrylic acid is maintained at 120° C. under an air atmosphere and the time until occurrence of turbidity in the solution is determined. The time is considered to be the inhibition period (IP) of the acrylic acid sample.
A part 1 was taken from the pure acrylic acid distillate RD and a stock solution 1 comprising 1000 ppm by weight of phenothiazine (PTZ) was produced with stirring.
40 parts by weight of stock solution 1 were mixed with 960 parts by weight of the pure acrylic acid distillate RD so as to give the stock solution 3. Part of this stock solution 3 was divided into identical samples having volumes of 1 ml.
Samples taken from the stock solutions 2 were combined with the various 1 ml samples obtained from the stock solutions 3 in such a way that the desired compositions of acrylic acid, phenothiazine (PTZ), ionic liquids IL, solvents LM or mixtures IL/LM of ionic liquids IL with solvents LM were obtained by doping. The doped samples produced in this way were provided for further examination on the same day. For repeat measurements, fresh doped samples were produced in order to minimize the influence of the acrylic acid oligomers obtained by Michael oligomerization.
To examine the polymerization tendency of the respective doped sample, three HPLC vials (transparent vessels having a fill volume of 1.5 ml) were in each case charged with 0.5 ml of the respective sample under air and subsequently tightly closed by means of a crimped cap. Immediately after production, in each case up to 92 vials charged as described were hung in a holder made for this purpose and kept at a temperature of 120° C. in a convection drying oven while the holder rotated at six revolutions per minute in order to ensure complete mixing in the vials (the liquid content of the respective vial came into contact with the crimped cap six times per minute). The time T to complete polymerization of the respective sample in the associated vial was then measured. For this purpose, the samples in the vials in the drying oven were monitored by means of a digital video camera and the video film was subsequently evaluated visually.
Three associated values of T were determined in this way for each doped sample and these were arithmetically averaged.
When mixtures of ionic liquid and solvent were used as additive, the weight ratio of ionic liquid to solvent or to the solvent mixture (IL/LM) was 20/80.

[5] = Phase diagram of the system phenothiazine/proglyme/EMIM acetate; format: physicochemical; details: room temperature, FIG. 5
Procedure: (§1) The phase diagram (triangular diagram) of the system phenothiazine/proglyme/EMIM acetate was determined at room temperature. In the triangular diagram, the corners correspond to the pure materials. The sides of the triangle correspond to two-component mixtures. The proportions of phenothiazine/proglyme/EMIM acetate at any point P are given by the intersections of the parallels to the side through P with the other sides. The phase behavior (single-phase, two phases liquid/liquid, two phases solid/liquid, three-phase) at selected points is indicated by symbols.

[6] = Phase diagram of the system phenothiazine/proglyme/EMIM ethylsulfate; format: physicochemical; details: room temperature, FIG. 6
Procedure: as §1, with “phenothiazine/proglyme/EMIM ethylsulfate” for “phenothiazine/proglyme/EMIM acetate”, “the sides” for “the side”

[7] = Solubility of phenothiazine in ionic liquid/solvent mixtures relative to pure solvent; details: 20% by weight ionic liquid, 80% by weight solvent; room temperature; FIGS. 1 to 4
Procedure: In the same way, the solubility of phenothiazine in the pure solvent was determined.

Row | Compound | Ra [1] | δD [2] [MPa^1/2] | δP [2] [MPa^1/2] | δH [2] [MPa^1/2] | εr at 20° C. [3] | Inhibiting period ([4]; additive 1000 ppm) [min] | other results
1 | CCCCC(CC)COC(=O)CCCCC(=O)OCC(CC)CCCC (centres unmarked) [Di(2-ethylhexyl) adipate] | 6.8 | 16.2 | 4.6 | 7.7 | 2.1 | 350 | –
2 | COC(=O)c1ccccc1C(=O)OC [Dimethyl phthalate] | – | – | – | – | – | 348 | –
3 | CCCCCCCCCC(=O)N(C)C [C10-fatty acid dimethylamide] | – | 16.6 | 6.7 | 5.7 | 13.8 | 335 | –
4 | Cn1ccnc1 [N-Methylimidazole] | 8.8 | 19.7 | 15.6 | 11.2 | 32.0 | 366 | –
5 | NCCN [Ethylenediamine] | – | – | – | – | – | 341 | –
6 | c1ccc2c(c1)Nc1ccccc1S2 [phenothiazine] | – | – | – | – | – | – | phase behavior (compatibility of ionic liquid and solvent) [5]: an incompatibility between the ionic liquid and the solvent (formation of two liquid phases) is eliminated by the addition of phenothiazine above a particular concentration; solubility of phenothiazine in the solvent on addition of ionic liquid [5]: even small additions of the ionic liquid increase the solubility of phenothiazine in the solvent, with a linear increase up to the solubility in the pure ionic liquid; phase behavior (compatibility of ionic liquid and solvent) [6]: an incompatibility between the ionic liquid and the solvent (formation of two liquid phases) is eliminated by the addition of phenothiazine above a particular concentration; solubility of phenothiazine in the solvent on addition of ionic liquid [6]: even small additions of the ionic liquid increase the solubility of phenothiazine in the solvent, with a linear increase or a slight synergistic effect up to solubility in the pure ionic liquid
7 | CN1CCN(C)C1=O [Dimethylethyleneurea] | – | – | – | – | – | 313 | –
8 | CCCCCCCCO [Agnique FOH 898, n-octanol] | – | – | – | – | – | 332 | –
9 | CN(C)CCCN [3-(Dimethylamino)-1-propylamine, 3-(dimethylamino)-1-propylamine] | – | – | – | – | – | 407 | –
10 | O=S1(=O)CCCC1 [Sulfolane] | – | – | – | – | 42.7 | 330 | –
11 | COCC(C)OCC(C)OC (centres unmarked) [Dipropylene glycol dimethyl ether] | 7.1 | 15.5 | 4.6 | 6.1 | 10.4 | 339 | –
12 | CCCCOC(=O)CCCCC(=O)OCCCC [Dibutyl adipate (Cetiol B), Dibutyl adipate] | 6.8 | 16.4 | 4.3 | 5.9 | 3.0 | 347 | –
13 | COC(=O)c1ccccc1 [Methyl benzoate] | 4.9 | 18.9 | 8.2 | 4.7 | 6.7 | 350 | –
14 | CC(O)C(=O)N(C)C (centres unmarked) [Agnique AMD 3 L, N,N-dimethyllactamide] | – | – | – | – | – | 405 | –
15 | C1COCCN1 [Morpholine] | 8.1 | 18.0 | 4.9 | 11.0 | 7.8 | 410 | –
16 | C[S+](C)[O-] [DMSO] | 7.4 | 18.4 | 16.4 | 10.2 | 47.3 | 317 | –
17 | CC#N [Acetonitrile] | 7.8 | 15.3 | 18.0 | 6.1 | 36.8 | 335 | –

Row | Compound | Ra [1] | δD [2] [MPa^1/2] | δP [2] [MPa^1/2] | δH [2] [MPa^1/2] | εr at 20° C. [3] | Inhibiting period ([4]; additive 1000 ppm) [min] | other results
18 | tetrabutylammonium [2-(2-methoxyethoxy)ethoxy]acetate [TBA ether carboxylate] | – | – | – | – | – | – | Inhibiting period ([4]; additive 22 ppm): 378 min
19 | O [DI water, deionized water] | – | – | – | – | – | 327 | –
20 | CCCCC(CC)COC(=O)C(C)O (centres unmarked) [Agnique AE 3 2 EH, 2-ethylhexyl lactate] | – | – | – | – | – | 279 | –
21 | C1CCC2CCCCC2C1 (centres unmarked) [Decahydronaphthalene] | – | – | – | – | – | 347 | –
22 | OCCO [Ethylene glycol] | – | – | – | – | – | 365 | relative solubility of phenothiazine in a mixture of ionic liquid and solvent, based on the solubility in the pure solvent [7]: only a small solubility-increasing effect or solubility-reducing effect
23 | O=C1CCCO1 [γ-Butyrolactone] | 6.1 | 18.0 | 16.6 | 7.4 | 41.4 | 361 | –
24 | N-ethyl-N′-methylimidazolium ethylsulfate [EMIM ethylsulfate] | – | – | – | – | – | – | Inhibiting period ([4]; additive 29 ppm): 386 min
25 | CC(=O)O [Acetic acid] | – | – | – | – | – | 347 | –
26 | COc1ccc(C(OC)OC)cc1 [Anisacetal, p-(dimethoxymethyl)anisole] | – | – | – | – | – | 320 | –
27 | N#Cc1ccccc1 [Benzonitrile] | 4.6 | 18.8 | 12.0 | 3.3 | 25.7 | 334 | –
28 | O=C1CCCCC1 [Cyclohexanone] | 3.2 | 17.8 | 8.4 | 5.1 | 16.1 | 75 | –
29 | OCc1ccccc1 [Benzyl alcohol] | – | – | – | – | – | 355 | –
30 | CN1CCCC1=O [N-Methylpyrrolidone] | 8.2 | 16.8 | 2.8 | 6.7 | 32.8 | 343 | –
31 | CCCCC(C)=O [Methyl butyl ketone] | 6.3 | 15.3 | 6.1 | 4.1 | 14.5 | 309 | –
32 | CCC(=O)O [Propionic acid] | – | – | – | – | – | 337 | –
33 | COC(=O)CCC(=O)OC [Dimethyl succinate] | 4.7 | 16.1 | 7.7 | 8.8 | 7.3 | 348 | –
34 | N-ethyl-N′-methylimidazolium isononanoate [EMIM isononanoate] | – | – | – | – | – | 379 | –
